Tests used:
[1] = molecular target: T1, GppNHp-KRAS G12D mutant protein (Homo sapiens, UniProt P01116, G12D); experiment: Differential scanning fluorimetry (DSF) binding affinity to GppNHp-KRAS G12D mutant protein; conditions: DSF thermal shift, 10 μM compound, 4 μg KRAS protein, 50 mM HEPES (pH 7.5)
T1 construct: purchased Daegu Gyeongbuk Medical Innovation Foundation (DGMIF), made to order
Procedure: (§1) Test Example 1: Measurement of Binding Affinity to KRAS G12D Mutant Protein The binding affinities of the compounds according to one embodiment of the present application to the KRAS G12D mutant protein were evaluated using differential scanning fluorimetry (DSF). Differential scanning fluorimetry (DSF) is a method used to study the stability of a protein upon binding to a compound. The experiment can be performed using a real-time PCR (RT-PCR) instrument, and is commonly employed as a screening technique for small-molecule compounds targeting specific proteins. As the temperature increases, folded proteins begin to unfold, during which a hydrophobic dye such as SYPRO Orange binds to the exposed hydrophobic regions of the protein, resulting in a measurable increase in fluorescence intensity (maximum absorption at 470 nm and maximum emission at 570 nm). Protein-compound binding is determined by the difference in the melting temperature (Tm) of the protein in the presence of the compound compared to the Tm in the absence of the compound, expressed as ΔTm. The binding affinity to the KRAS G12D mutant protein was measured using the Protein Thermal Shift Dye kit (#4461146, Applied Biosystems). The GDP-KRAS G12D mutant protein and GppNHp-KRAS G12D mutant protein used in the experiment were recombinant proteins synthesized by the Daegu Gyeongbuk Medical Innovation Foundation (DGMIF) upon request. The analysis of binding between the compound and the KRAS G12D mutant protein was performed according to the following reaction recipe: each test sample contained 4 μg of KRAS protein, 10 μM of the compound, and 2×SYPRO Orange dye. For the GDP-KRAS G12D protein samples, the buffer provided with the Protein Thermal Shift Dye kit was used, while for the GppNHp-KRAS G12D protein samples, 50 mM HEPES (pH 7.5) buffer was used. For the protein-compound binding reaction, the compound was added to the KRAS G12D mutant protein and reacted at room temperature for 30 minutes, followed by the addition of 2×SYPRO Orange dye. The temperature was increased to 25° C.-99° C. (0.05° C./s) using QuantStudiol RT-PCR instrument (Applied Biosystems), and fluorescence was measured using a ROX reporter with filters of 580±10 nm (excitation)/623±14 nm (emission). The measurements obtained at a compound concentration of 10 μM were analyzed using the Protein Thermal Shift Software program (version v1.4, Thermo Fisher Scientific), and the ΔTm (° C.) values, which indicate the binding affinity of the compound to the KRAS G12D mutant protein, were calculated. The DSF measurement results for the compounds according to one embodiment of the present application with respect to the KRAS G12D mutant protein are shown in Table 2.

[2] = molecular target: T2, GDP-KRAS G12D mutant protein (Homo sapiens, UniProt P01116, G12D); experiment: Differential scanning fluorimetry (DSF) binding affinity to GDP-KRAS G12D mutant protein; conditions: DSF thermal shift, 10 μM compound, 4 μg KRAS protein
T2 construct: purchased Daegu Gyeongbuk Medical Innovation Foundation (DGMIF), made to order
Procedure: as §1

Structure (SMILES) | GppNHp-KRAS G12D (ΔTmD, ° C.) [1] [°C] | GDP-KRAS G12D (ΔTmD, ° C.) [2] [°C]
C#Cc1c(F)ccc2cccc(-c3cc4nc(OC[C@@]56CCCN5C/C(=C\F)C6)nc(N5[C@@H]6CC[C@H]5CNC6)c4n4ccnc34)c12 [Example 22, 1-((1R,5S)-3,8-diazabicyclo[3.2.1]octan-8-yl)-6-(8-ethynyl-7-fluoronaphthalen-1-yl)-3-(((S,Z)-2-(fluoromethylene)tetrahydro-1H-pyrrolizin-7a(5H)-yl)methoxy)imidazo[1′,2′:1,6]pyrido[3,2-d]pyrimidine] | 1.02 | 4.28
C#Cc1c(F)ccc2cc(N)cc(-c3c(F)c4nc(OCC5(CN6CCC7(CC6)CC7(F)F)CC5)nc(N5C[C@H]6CC[C@@H](C5)N6)c4c4cc(C)oc34)c12 [Example 58, 4-(1-((1R,5S)-3,8-diazabicyclo[3.2.1]octan-3-yl)-3-((1-((1,1-difluoro-6-azaspiro[2.5]octan-6-yl)methyl)cyclopropyl)methoxy)-5-fluoro-8-methylfuro[3,2-f]quinazolin-6-yl)-5-ethynyl-6-fluoronaphthalen-2-amine] | 1.92 | 6.81
C#Cc1c(F)ccc2cc(O)cc(-c3cc4nc(OCC5(CN6CCC[C@H](F)C6)CC5)nc(N5[C@@H]6CC[C@H]5CNC6)c4n4ccnc34)c12 [Example 19, 4-(1-((1R,5S)-3,8-diazabicyclo[3.2.1]octan-8-yl)-3-((1-(((S)-3-fluoropiperidin-1-yl)methyl)cyclopropyl)methoxy)imidazo[1′,2′:1,6]pyrido[3,2-d]pyrimidin-6-yl)-5-ethynyl-6-fluoronaphthalen-2-ol] | 3.82 | 7.68
C#Cc1c(F)ccc2cccc(-c3cc4nc(OC[C@@]56CCCN5C/C(=C\F)C6)nc(N5C[C@H]6CC[C@@H](C5)N6)c4n4ccnc34)c12 [Example 27, 1-((1 R,5S)-3,8-diazabicyclo[3.2.1]octan-3-yl)-6-(8-ethynyl-7-fluoronaphthalen-1-yl)-3-(((S,Z)-2-(fluoromethylene)tetrahydro-1H-pyrrolizin-7a(5H)-yl)methoxy)imidazo[1′,2′:1,6]pyrido[3,2-d]pyrimidine] | 0.71 | 4.27
CCc1c(F)ccc2cc(O)cc(-c3cc4nc(OC[C@@]56CCCN5CC(=C(F)F)C6)nc(N5[C@@H]6CC[C@H]5CNC6)c4n4ccnc34)c12 [Example 107, 4-(1-((1 R,5S)-3,8-diazabicyclo[3.2.1]octan-8-yl)-3-(((S)-2-(difluoromethylene)tetrahydro-1H-pyrrolizin-7a(5H)-yl)methoxy)imidazo[1′,2′:1,6]pyrido[3,2-d]pyrimidin-6-yl)-5-ethyl-6-fluoronaphthalen-2-ol] | 4.32 | 8.91
C#Cc1c(F)ccc2cc(O)cc(-c3cc4nc(OC[C@]56CCCN5CC(=C)C6)nc(N5C[C@H]6CC[C@@H](C5)N6)c4n4ccnc34)c12 [Example 33, 4-(1-((1R,5S)-3,8-diazabicyclo[3.2.1]octan-3-yl)-3-(((R)-2-methylenetetrahydro-1H-pyrrolizin-7a(5H)-yl)methoxy)imidazo[1′,2′:1,6]pyrido[3,2-d]pyrimidin-6-yl)-5-ethynyl-6-fluoronaphthalen-2-ol] | 3.59 | 7.42
Cc1cc2c(o1)c(-c1c(Cl)c(C)cc3[nH]ncc13)c(F)c1nc(OC[C@@]34CCCN3C[C@H](F)C4)nc(N3C[C@H]4CC[C@@H](C3)N4)c12 [Example 51, 1-((1 R,5S)-3,8-diazabicyclo[3.2.1]octan-3-yl)-6-(5-chloro-6-methyl-1H-indazol-4-yl)-5-fluoro-3-(((2R,7aS)-2-fluorotetrahydro-1H-pyrrolizin-7a(5H)-yl)methoxy)-8-methylfuro[3,2-f]quinazoline] | 1.32 | 4.73
C#Cc1c(F)ccc2cc(O)cc(-c3c(F)c4nc(OC[C@@]56CCCN5C[C@H](F)C6)nc(N5[C@@H]6CC[C@H]5CNC6)c4c4cn(C)nc34)c12 [Example 103, 4-(9-((1 R,5S)-3,8-diazabicyclo[3.2.1]octan-8-yl)-5-fluoro-7-(((2R,7aS)-2-fluorotetrahydro-1H-pyrrolizin-7a(5H)-yl)methoxy)-2-methyl-2H-pyrazolo[4,3-n]quinazolin-4-yl)-5-ethynyl-6-fluoronaphthalen-2-ol] | 11.59 | 14.80
C#Cc1c(F)ccc2cc(O)cc(-c3cc4nc(OCC5(CN6CCC[C@H](F)C6)CC5)nc(N5C[C@H]6CC[C@@H](C5)N6)c4n4ccnc34)c12 [Example 31, 4-(1-((1R,5S)-3,8-diazabicyclo[3.2.1]octan-3-yl)-3-((1-(((S)-3-fluoropiperidin-1-yl)methyl)cyclopropyl)methoxy)imidazo[1′,2′:1,6]pyrido[3,2-d]pyrimidin-6-yl)-5-ethynyl-6-fluoronaphthalen-2-ol] | 2.22 | 7.82
C#Cc1c(F)ccc2cccc(-c3c(F)c4nc(OC[C@@]56CCCN5C[C@H](F)C6)nc(N5C[C@H]6CC[C@@H](C5)N6)c4c4cn(C)nc34)c12 [Example 82, 9-((1 R,5S)-3,8-diazabicyclo[3.2.1]octan-3-yl)-4-(8-ethynyl-7-fluoronaphthalen-1-yl)-5-fluoro-7-(((2R,7aS)-2-fluorotetrahydro-1H-pyrrolizin-7a(5H)-yl)methoxy)-2-methyl-2H-pyrazolo[4,3-n]quinazoline] | 3.26 | 7.52
C#Cc1c(F)ccc2cc(O)cc(-c3c(F)c4nc(N5CC(N(C)C)C5)nc(N5C[C@H]6CC[C@@H](C5)N6)c4c4cn(C)nc34)c12 [Example 72, 4-(9-((1R,5S)-3,8-diazabicyclo[3.2.1]octan-3-yl)-7-(3-(dimethylamino)azetidin-1-yl)-5-fluoro-2-methyl-2H-pyrazolo[4,3-n]quinazolin-4-yl)-5-ethynyl-6-fluoronaphthalen-2-ol] | 0.00 | −0.29
CCc1c(F)ccc2cc(O)cc(-c3cc4nc(OC[C@@]56CCCN5CC(=C(F)F)C6)nc(N5C[C@H]6CC[C@@H](C5)N6)c4n4ccnc34)c12 [Example 109, 4-(1-((1 R,5S)-3,8-diazabicyclo[3.2.1]octan-3-yl)-3-(((S)-2-(difluoromethylene)tetrahydro-1H-pyrrolizin-7a(5H)-yl)methoxy)imidazo[1′,2′:1,6]pyrido[3,2-d]pyrimidin-6-yl)-5-ethyl-6-fluoronaphthalen-2-ol] | 4.28 | 10.51
C#Cc1c(F)ccc2cc(O)cc(-c3cc4nc(OC[C@@]56CCCN5CC(=C(F)F)C6)nc(N5[C@@H]6CC[C@H]5CNC6)c4n4ccnc34)c12 [Example 106, 4-(1-((1 R,5S)-3,8-diazabicyclo[3.2.1]octan-8-yl)-3-(((S)-2-(difluoromethylene)tetrahydro-1H-pyrrolizin-7a(5H)-yl)methoxy)imidazo[1′,2′:1,6]pyrido[3,2-d]pyrimidin-6-yl)-5-ethynyl-6-fluoronaphthalen-2-ol] | 6.65 | 10.21

Source: patent US20260209249A1, “NOVEL TRICYCLIC COMPOUND AS KRAS G12D INHIBITOR, AND USE THEREOF” (SK Biopharmaceuticals Co., priority 2022, published 2026)
